Test results: patent US8324346B2, “Bioactive keratin peptides” (Keraplast Technologies, Ltd., priority 2002, dated 2012)

System: Normal human adult dermal fibroblasts
Experiment: Cell Titer96 Cell Proliferation Assay: mitogenic effects of synthesized peptides on human fibroblasts in culture for 5 days
Type: cell-based
Settings: normalized to baseline controls
Experimental: Normal human adult dermal fibroblasts were cultured in fibroblast growth medium (Clonetics™/BioWhittaker, San Diego, Calif., USA). Passage 5 cells were seeded into wells of 96 well plates at 5×10^3 cells/well. Test peptide solutions were prepared at approximately 1.5 mg/ml in sterile water. Small volumes of 0.1N NH4OH were added dropwise to peptide the peptide solutions to completely solubilize the peptides as recommended by the manufacturer (New England Peptide, Inc., Fitchburg, Miss., USA). The volume of NH4OH added to the solution was recorded and used to adjust beginning concentration. Solutions were serially diluted in fibroblast culture medium from 100-0.001 μg/ml, then added to the cells and cultured for 5 days. At day 3, test and control media were removed from each well by vacuum and replaced with fresh test or control solutions. Samples were evaluated in 4 replicate wells. Note in each plate, wells were selected at random to be used as baseline controls to account for any variation in cell seeding between plates. After 5 days, cell proliferation was assessed spectrophotometrically using the Cell Titer96® Cell Proliferation Assay (Promega Corp., Madison, Wis., USA). Absorbance values were normalized to baseline controls and expressed as percent increased (positive values) or decreased (negative values) proliferation.

| Substance | percent increased (positive values) or decreased (negative values) proliferation, concentration 0.001 ug/mL | percent increased (positive values) or decreased (negative values) proliferation, concentration 0.01 ug/mL | percent increased (positive values) or decreased (negative values) proliferation, concentration 0.1 ug/mL | percent increased (positive values) or decreased (negative values) proliferation, concentration 1 ug/mL | percent increased (positive values) or decreased (negative values) proliferation, concentration 10 ug/mL | percent increased (positive values) or decreased (negative values) proliferation, concentration 100 ug/mL |
| --- | --- | --- | --- | --- | --- | --- |
| DLNRVL (Consensus peptide) [H2N-DLNRVL-OH] | 14.4% | 11.5% | −0.4% | −2.8% | −3.5% | −1.2% |
| AAPTV (Consensus peptide) [H2N-AAPTV-OH] | 11.0% | −0.2% | 0.3% | 2.8% | −5.9% | −5.9% |
| DAAPTV (Consensus peptide) [H2N-DAAPTV-OH] | −3.0% | 9.5% | 7.5% | 3.5% | −6.1% | −2.7% |
| RLNVEV (Consensus peptide) [H2N-RLNVEV-OH] | −2.6% | −6.0% | −4.3% | 1.9% | 6.4% | 10.6% |
| LGDRL (Consensus peptide) [H2N-LGDRL-OH] | 10.3% | 0.0% | 0.6% | −4.8% | −3.1% | −3.8% |
| VDAAPT (Consensus peptide) [H2N-VDAAPT-OH] | 1.6% | 2.9% | −3.6% | 4.5% | 6.2% | 13.3% |
| LNVEV (Consensus peptide) [H2N-LNVEV-OH] | −1.0% | 0.9% | −10.8% | −11.4% | 15.9% | 13.9% |
| TAPTV (Consensus peptide) [H2N-TAPTV-OH] | 5.2% | −1.2% | 9.4% | 8.2% | −2.7% | 0.7% |
| SPLGD (Consensus peptide) [H2N-SPLGD-OH] | 11.8% | 1.7% | −4.2% | 1.5% | −1.2% | −4.3% |
| DLNQ (Consensus peptide) [H2N-DLNQ-OH] | 15.9% | 8.9% | 2.6% | −0.8% | −0.7% | −3.6% |
| VEVDAA (Consensus peptide) [H2N-VEVDAA-OH] | 11.0% | 2.3% | −9.0% | −4.7% | −1.3% | −9.5% |
| VDTAPTV (Consensus peptide) [H2N-VDTAPTV-OH] | 10.4% | 7.9% | 1.2% | 0.7% | 5.5% | −5.5% |
| EVDAAPT (Consensus peptide) [H2N-EVDAAPT-OH] | 6.5% | 8.9% | 5.4% | 7.1% | 16.5% | 4.1% |
| APTVDLN (Consensus peptide) [H2N-APTVDLN-OH] | 1.2% | 3.9% | 2.8% | −6.0% | 8.1% | 6.7% |
| DTAPTV (Consensus peptide) [H2N-DTAPTV-OH] | 3.2% | 2.5% | 6.7% | 2.9% | 2.2% | 7.6% |
| TAPTVD (Consensus peptide) [H2N-TAPTVD-OH] | 0.3% | −0.9% | −0.5% | 2.1% | 4.0% | 6.9% |
| TLRSP (Consensus peptide) [H2N-TLRSP-OH] | 4.7% | 1.9% | 7.7% | 6.6% | 14.7% | 18.8% |
| AAPTVD (Consensus peptide) [H2N-AAPTVD-OH] | 11.6% | 7.9% | −1.1% | 1.7% | −2.0% | 1.6% |
| VDTAPT (Consensus peptide) [H2N-VDTAPT-OH] | 9.0% | 4.2% | 6.8% | 2.5% | −0.1% | 4.4% |
